Patent US7842316B2, “Cosmetic compositions having extracts of Amomum melegueta and methods of treating skin” (Avon Products, Inc., priority 2007, dated 2010)

Target: T1, COX-2 (Ovis aries, UniProt P79208)
T1 sequence (P79208 17-603): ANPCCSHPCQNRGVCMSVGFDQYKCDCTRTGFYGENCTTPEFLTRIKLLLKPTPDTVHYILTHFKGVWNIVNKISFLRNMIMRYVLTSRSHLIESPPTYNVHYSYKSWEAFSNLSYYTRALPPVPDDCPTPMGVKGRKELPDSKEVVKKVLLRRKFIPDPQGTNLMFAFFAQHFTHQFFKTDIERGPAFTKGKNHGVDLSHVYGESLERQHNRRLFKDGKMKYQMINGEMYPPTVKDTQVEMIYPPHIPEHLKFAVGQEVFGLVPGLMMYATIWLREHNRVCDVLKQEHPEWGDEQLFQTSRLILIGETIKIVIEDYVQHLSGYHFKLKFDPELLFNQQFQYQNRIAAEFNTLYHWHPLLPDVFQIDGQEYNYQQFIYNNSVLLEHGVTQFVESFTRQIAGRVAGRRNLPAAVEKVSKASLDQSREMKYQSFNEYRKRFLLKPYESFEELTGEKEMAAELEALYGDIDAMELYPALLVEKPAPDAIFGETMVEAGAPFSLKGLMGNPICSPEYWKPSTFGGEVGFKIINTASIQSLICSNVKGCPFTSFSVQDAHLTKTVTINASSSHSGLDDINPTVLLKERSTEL
Assay: colorimetric COX (ovine) inhibitor screening assay
Assay type: biochemical
Conditions: Vioxx used as positive control; concentration not given

level of inhibition (COX-2 inhibitory activity), positive control: 90%
Compound: CS(=O)(=O)c1ccc(C2=C(c3ccccc3)C(=O)OC2)cc1 [Vioxx]
